Measured values reported in paper PMC5962729 (Frontiers in Pharmacology, 2018).

Assays:
MRP2 = experiment: Expression level of MRP2 in rat liver by UHPLC-MS/MS; type: in vivo
Procedure: (§1) Male Sprague Dawley rats (230 ± 20 g, 6–8 weeks of age) were purchased from B&K Laboratory Animal, Corp. Ltd. (Shanghai, China) and fed in the Laboratory Animal Center of Shanghai University of Traditional Chinese Medicine. All rats were allowed to acclimatize for 3 days before experimentation. The rats were randomly divided into six groups (n = 5 for each group). […] The rats in groups 4, 5, and 6 were intragastrically administered YCHD every 24 h for 10 consecutive days. The rats in group 3 were orally administered UDCA at a dose of 100 mg/kg every 24 h for 10 consecutive days, which is well-documented to treat induced liver injury and cholestasis ([Chen et al., 2016]; [Cao et al., 2017]). Moreover, groups 1 and 2 were intragastrically treated with physiological saline (0.9%) at a dose of 1 mL/100 g. […] At the end of the experiment, all rats were euthanized by CO2 inhalation. The serum samples were stored at -70°C until analysis, and liver samples were isolated and stored at -70°C for further analysis, whereas the central part of the right large lobe of the liver was used for histological examination. […]
(§2) Total membrane protein was isolated (in triplicate) from liver tissue according to the Native Membrane Protein Extraction Kit protocol. Subsequently, protein concentrations were determined by applying the BCA Protein Assay Kit. […]

[1] = system: ANIT-induced cholestatic liver injury; experiment: Serum biochemistry (ALT, AST, TBIL, DBIL, TBA) in ANIT-induced cholestatic liver injury; type: in vivo, rat
Procedure: Ltd. (Shanghai, China) and fed in the Laboratory Animal Center of Shanghai University of Traditional Chinese Medicine. […] The rats were randomly divided into six groups (n = 5 for each group). […] [Cao et al., 2017]). […] Before and 24 h after modeling, retro-orbital blood samples were collected in a coagulation tube, and they were then centrifuged at 4°C for 10 min (4000 rpm) to obtain the serum for the assay of ALT, AST, TBIL, DBIL, and TBA. At the end of the experiment, all rats were euthanized by CO2 inhalation. The serum samples were stored at -70°C until analysis, and liver samples were isolated and stored at -70°C for further analysis, whereas the central part of the right large lobe of the liver was used for histological examination.  FIGURE 2 The scheme of the animal experimental design. […] UDCA, positive control group treated with ursodeoxycholic acid (UDCA) (100 mg/kg, […].); […] A closed IV catheter system (Becton Dickinson, United States) was applied to cannulate the bile duct, and the bile specimens were collected into tubes at 2 h intervals for 6 h. The collected serum samples were maintained at room temperature to dissolve. The serum levels of ALT, AST, TBIL, DBIL, and TBA were then determined using a chemistry analyzer system (HITACHI 7080, Japan).

OATP1A1 = experiment: Expression level of OATP1A1 in rat liver by UHPLC-MS/MS; type: in vivo; settings: UDCA group, ANIT-treated rats; mean ± S.D.
Procedure: as §1, §2

[2] = UDCA 100 mg/kg i.g. daily 10 days, ANIT 50 mg/kg on day 8, serum

## C[C@H](CCC(=O)O)[C@H]1CC[C@H]2[C@@H]3[C@@H](O)C[C@@H]4C[C@H](O)CC[C@]4(C)[C@H]3CC[C@]12C [UDCA, Ursodeoxycholic acid]
MRP2; UDCA group, ANIT-treated rats, mean ± S.D.
  Mrp2 expression level in rat liver: 2.21±0.87 fmol/μg protein
MRP2; UDCA-treated cholestatic rats, liver, not statistically significant
  MRP2 expression upregulated, fold: 1.5 fold
[1]; [2]
  ALT: 400.6±200.0 IU/L
  AST: 611.8±257.2 IU/L
  DBIL: 21.2 ± 9.0 µmol/L
  TBA: 428.1 ± 55.9 µmol/L
  TBIL: 28.2 ± 19.0 µmol/L
[1]; UDCA 100 mg/kg, ANIT-treated rats, p < 0.001
  serum TBA decreased to (printed), compared with the control group (printed): 30.9%
[1]; UDCA 100 mg/kg, ANIT-treated rats, p < 0.01
  serum DBIL decreased to (printed), compared with the control group (printed): 40.9%
OATP1A1
  Oatp1a1 expression level in rat liver: 3.42±1.23 fmol/μg protein
